Our source for the IC50 values is patent US11168069B2, “Heterocyclylsulfonyl-substituted pyridines and their use in the treatment of cancer” (Oblique Therapeutics AB, priority 2017, dated 2021).

One test concerns MDA-MB-231. The test can be described thus: Cancer cell viability assay (MTT), MDA-MB-231. Type of test: cell-based. To be noted: Homo sapiens, 72 hrs, 10% FBS media. The protocol:
(§1) Breast cancer and glioblastoma cell lines were plated 4000 cells/well in 96-well plates in the presence of 10% FBS media. The following day cells were treated with various concentrations of example compounds (0.1% DMSO final) and incubated for 72 hrs. After the incubation An MTT assay was performed to access cell viability. Percent of viability was determined using DMSO vehicle and no cell (blank) controls.

Test [1] deals with recombinant gluthathione reductase (GR) (Homo sapiens (Human), UniProt P00390). The test can be described thus: Inhibition of recombinant GR (GSSG assay). The class given is biochemical. As to conditions: 2 nM GR, 250 μM NADPH, 15 minutes incubation, O.D. 340 nm. The protocol: (§2) Small molecule inhibition of recombinant thioredoxin reductase 1 (TrxR1) and gluthathione reductase (GR) was examined in 96-well plate format. 30 nM TrxR1 was incubated in the presence of 250 μM NADPH, 0.1 mg/ml BSA, and various concentrations of compound (1% DMSO final) in 50 mM Tris (pH 7.5) and 2 mM EDTA buffer for 15 minutes. Following the incubation period, 2 mM DTNB was added to each well and the change in O.D. at 412 nm was followed. Percent activity was determined using DMSO vehicle and no TrxR1 (blank) controls. 2 nM GR was incubated in the presence of 250 μM NADPH, 0.1 mg/ml BSA, and various concentrations of compounds (1% DMSO final) in 50 mM Tris (pH 7.5) and 2 mM EDTA buffer for 15 minutes. Following the incubation period, 1 mM GSSG was added to each well and the change in O.D. at 340 nm was followed. Percent activity was determined using DMSO vehicle and no GR (blank) controls.

In test [2] the target is recombinant thioredoxin reductase 1 (TrxR1) (Homo sapiens (Human), UniProt Q16881). The test can be described thus: Inhibition of recombinant TrxR1 (DTNB assay). The class given is biochemical. As to conditions: 30 nM TrxR1, 250 μM NADPH, 15 minutes incubation, O.D. 412 nm, read-out: TrxR Assay IC50. The procedure:
as §2

A further test has as its system U-87 MG. Nature of the test: Cancer cell viability assay (MTT), U-87 MG. Type of test: cell-based. As to conditions: Homo sapiens, 72 hrs, 10% FBS media. The procedure:
as §1

Another test concerns MDA-MB-468. The test can be described thus: Cancer cell viability assay (MTT), MDA-MB-468. As to conditions: Homo sapiens, 72 hrs, 10% FBS media. Type of test: cell-based. The protocol:
as §1

The test system of another test is MDA-MB-231 cells. Nature of the test: Breast cancer cell viability assay (Alamar Blue). Type of test: cell-based. As to conditions: Homo sapiens, 72 hrs, 10% FBS media containing 25 nM selenite. The protocol: MDA-MB-231 cells were plated 2000 cells/well in 96-well black optical plates in the presence of 10% FBS media containing 25 nM selenite. The following day cells were treated with various concentrations of compounds (0.1% DMSO final) and incubated for 72 hrs. After the incubation Alamar Blue reagent was added to each well and incubated for additional 3 hrs. Fluorescence was read ex:530 nm/em:590 nm, and percent of viability was determined using DMSO vehicle and no cell (blank) controls.

pIC50: −log10 of the molar value.

recombinant thioredoxin reductase 1 (TrxR1), sequence (Q16881 151-649): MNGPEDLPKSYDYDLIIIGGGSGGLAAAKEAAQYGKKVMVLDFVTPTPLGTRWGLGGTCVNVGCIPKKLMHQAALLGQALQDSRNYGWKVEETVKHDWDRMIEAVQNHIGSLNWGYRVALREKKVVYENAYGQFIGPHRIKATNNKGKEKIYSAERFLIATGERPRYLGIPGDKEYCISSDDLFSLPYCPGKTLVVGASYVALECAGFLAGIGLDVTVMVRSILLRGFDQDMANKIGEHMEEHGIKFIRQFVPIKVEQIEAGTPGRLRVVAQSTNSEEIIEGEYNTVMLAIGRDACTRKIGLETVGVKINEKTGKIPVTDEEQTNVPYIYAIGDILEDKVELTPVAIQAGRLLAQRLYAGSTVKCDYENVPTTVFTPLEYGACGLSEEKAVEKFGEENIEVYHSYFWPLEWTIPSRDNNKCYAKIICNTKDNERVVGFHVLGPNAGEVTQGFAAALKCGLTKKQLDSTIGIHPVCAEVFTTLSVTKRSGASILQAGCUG
recombinant gluthathione reductase (GR), sequence (P00390 44-522): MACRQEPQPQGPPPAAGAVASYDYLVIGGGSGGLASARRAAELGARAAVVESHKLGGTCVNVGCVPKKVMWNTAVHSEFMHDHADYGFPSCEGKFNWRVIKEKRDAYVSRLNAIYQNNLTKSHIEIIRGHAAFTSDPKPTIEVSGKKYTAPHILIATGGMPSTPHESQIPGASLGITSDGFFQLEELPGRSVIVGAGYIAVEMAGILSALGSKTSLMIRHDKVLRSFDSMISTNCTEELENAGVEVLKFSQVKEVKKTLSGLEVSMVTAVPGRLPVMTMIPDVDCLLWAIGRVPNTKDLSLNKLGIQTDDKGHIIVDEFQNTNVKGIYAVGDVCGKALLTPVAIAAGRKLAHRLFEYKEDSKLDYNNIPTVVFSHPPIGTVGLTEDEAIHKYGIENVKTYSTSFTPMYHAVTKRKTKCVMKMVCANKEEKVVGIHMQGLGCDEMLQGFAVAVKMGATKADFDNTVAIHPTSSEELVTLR

Consider `COc1ccc([N+](=O)[O-])c([S+]([O-])C2CCOC2C)n1` (stereo not shown) [Example 4, 6-Methoxy-2-(2-methyl-tetrahydro-furan-3-ylsulfinyl)-3-nitro-pyridine], for which the pIC50 in the test with MDA-MB-231 was 5.45; in test [1], below 4.00; in test [2] it was 6.00; in the test on U-87 MG, 5.03; in the test on MDA-MB-468, 5.68.
Regarding `COc1ccc([N+](=O)[O-])c([S+]([O-])C2CCN(C(C)=O)CC2)n1` (stereo not shown) [Example 6, 1-[4-(6-Methoxy-3-nitro-pyridin-2-ylsulfinyl)-piperidin-1-yl]-ethanone], the negative logarithm of the IC50 (pIC50) was 4.94 in the test with MDA-MB-231, below 4.00 in test [1], 5.39 in test [2] and 5.25 in the test with MDA-MB-468.
For the molecule `COc1ccc([N+](=O)[O-])c(S(=O)(=O)C2CCOCC2)n1` [Example 3, 6-methoxy-3-nitro-2-((tetrahydro-2H-pyran-4-yl)sulfonyl)pyridine], the pIC50 in the test on MDA-MB-231 was 5.12; in test [1], below 4.00; in test [2], 7.41; with U-87 MG, 5.21; in the test with MDA-MB-231 cells, 5.29; in the test with MDA-MB-468 it was 5.36.
With `COc1ccc([N+](=O)[O-])c([S+]([O-])C2CCOCC2)n1` (stereo not shown) [Example 5, 6-Methoxy-3-nitro-2-(tetrahydro-pyran-4-ylsulfinyl)-pyridine], the pIC50 in the test with MDA-MB-231 was 5.45; in test [1], below 4.00; in test [2] it was 5.36; with MDA-MB-468, 5.62.
With `COc1ccc([N+](=O)[O-])c(S(=O)(=O)C2CCOC2C)n1` (stereo not shown) [Example 1], the pIC50 with MDA-MB-231 was 5.05; in test [1], below 4.00; in test [2], 7.03; in the test on U-87 MG, 5.05; with MDA-MB-231 cells it was 5.34; in the test on MDA-MB-468, 5.38.
On to `COc1ccc([N+](=O)[O-])c(S(=O)(=O)C2CCN(C(C)=O)CC2)n1` [Example 2, 1-(4-((6-methoxy-3-nitropyridin-2-yl)sulfonyl)piperidin-1-yl)ethan-1-one], for which the pIC50 in the test with MDA-MB-231 is 5.00; in test [1], below 4.00; in test [2] it was 6.41; in the test with U-87 MG, 4.98; in the test on MDA-MB-231 cells, 4.91; in the test on MDA-MB-468, 5.40.
